Results from patent EP4745138A1, “THIO-GLUTARIMIDO ISOINDOLINONE DERIVATIVE, BIFUNCTIONAL PROTEIN DEGRADER CONTAINING SAME, AND USES THEREOF” (Gluetacs Therapeutics (Shanghai) Co., Ltd., priority 2023, dated 2025).
Read-outs that look alike come from different tables or passages of the source. Values belong to the molecule of their own block, whether it stands above or below them.

Tests used:
SW620 = experiment: Tumor cell proliferation inhibition (CellTiter-Meiluncell Luminescent Cell Viability Assay); assay type: cell-based; settings: Homo sapiens, 96 hours; for inhibition at 0.01 µM: SW-620, 10 nM, read-out: Inhibition Rate at 10 nM (%); for inhibition at 0.5 µM: SW-620, 500 nM, read-out: Inhibition Rate at 500 nM (%)
Experimental: (§1) The tumor cells used herein were cultured in a cell culture medium listed in table 3 at 37°C in an incubator with 5% CO2. Prior to experimentation, all cell lines used were correctly identified by STR profiling, and tested negative for mycoplasma contamination using a mycoplasma detection kit through routine screenings. Table 3. Tumor cells and cell culture medium used in the present disclosure
(§2) The IC50 values of the compounds of the present disclosure (including the compounds in Table 1, Table 2, and Examples) were determined using the CellTiter-Meiluncell Luminescent Cell Viability Assay Kit from Dalian Meilun Biotech Co., Ltd. The detailed procedure is as follows: Tumor cells were seeded in 96-well cell culture plates at the densities specified in Table 4. On the following day, the test compounds of the present disclosure were subjected to serial dilution. […] Subsequently, 0.5 µL of the test compound dilution was transferred into the 96-well plate containing the cells, with each well containing 100 µL of cell culture medium. […] Into the 96-well plate, the diluted test compounds and corresponding detection reagents were added, resulting in final test compound concentrations of 500 nM and 10 nM, respectively. The experimental procedure is described below using the diluted 2 µM test compound as an example.
(§3) 0.5 µL of the aforementioned diluted compound of the present disclosure (including the compounds in Table 1, Table 2, and Examples) was added to the seeded cells in 100 µL of medium, yielding a final test compound concentration of 10 nM. After the cells were treated with the compounds of the present disclosure for a specified period, the cell viability assay reagent was added to the culture medium according to the kit's instructions to determine cell viability. […] All controls were treated using the same procedure as the compounds of the present disclosure. […] Seeding protocol and treatment time for tumor cells

RPMI-8226 = experiment: as above; assay type: cell-based; settings: Homo sapiens, 96 hours; for inhibition at 0.01 µM: 10 nM, read-out: Inhibition Rate at 10 nM (%); for inhibition at 0.5 µM: 500 nM, read-out: Inhibition Rate at 500 nM (%)
Experimental: as §1, §2, §3

MM.1S = experiment: as above; assay type: cell-based; settings: for inhibition at 0.01 µM / inhibition at 0.5 µM: Homo sapiens, MM1.S; for inhibition at 0.01 µM: read-out: Inhibition Rate at 10 nM (%); for inhibition at 0.5 µM: read-out: Inhibition Rate at 500 nM (%)
Experimental: as §1, §2, §3

MV-4-11 = experiment: as above; assay type: cell-based; settings: Homo sapiens, 96 hours; for inhibition at 0.01 µM: MV4-11, 10 nM, read-out: Inhibition Rate at 10 nM (%); for inhibition at 0.5 µM: MV4-11, 500 nM, read-out: Inhibition Rate at 500 nM (%)
Experimental: as §1, §2, §3

[1] = target: T1, human Cereblon WT GST-tagged protein (Homo sapiens, UniProt Q96SW2); experiment: CRBN-binding affinity, HTRF (CEREBLON BINDING kit); settings: for inhibition at 0.5 µM: read-out: Inhibition Rate at 0.5 µM (%); for inhibition at 2 µM: read-out: Inhibition Rate at 2 µM (%)
T1 construct: purchased CISBIO 64BDCRBNPEH
Procedure, shortened: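 Competitive HTRF format: test compounds diluted in diluent #9 (1X) were combined with GST-tagged Cereblon, then a premixed thalidomide-red tracer plus anti-GST europium antibody; final compound concentrations were 2 µM and 0.5 µM. Blank wells received diluent and PROTAC binding buffer instead of compound and protein.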

[2] = Table I-8, SMARCA2/4 inhibitors
[3] = MM.1S, 10 nM, 96 hours, Table I-11, RSK inhibitors
[4] = MM.1S, 500 nM, 96 hours, Table I-11, RSK inhibitors

T1 sequence (Q96SW2 whole entry): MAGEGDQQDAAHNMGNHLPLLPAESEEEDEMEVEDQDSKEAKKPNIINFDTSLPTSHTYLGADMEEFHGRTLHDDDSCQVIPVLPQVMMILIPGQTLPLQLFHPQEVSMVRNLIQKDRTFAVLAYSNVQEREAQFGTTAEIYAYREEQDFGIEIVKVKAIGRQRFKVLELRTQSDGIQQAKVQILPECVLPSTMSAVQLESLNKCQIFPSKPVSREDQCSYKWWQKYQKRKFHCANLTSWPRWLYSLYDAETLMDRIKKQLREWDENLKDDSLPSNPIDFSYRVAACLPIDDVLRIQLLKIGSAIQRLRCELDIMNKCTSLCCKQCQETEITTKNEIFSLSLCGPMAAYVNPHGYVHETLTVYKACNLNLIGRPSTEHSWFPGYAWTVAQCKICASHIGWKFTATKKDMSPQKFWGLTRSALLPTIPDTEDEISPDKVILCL

SMILES: CC1(C)CCC(CN2CCN(c3ccc(C(=O)NS(=O)(=O)c4ccc(NCC5CCOCC5)c([N+](=O)[O-])c4)c(Oc4cnc5[nH]ccc5c4)c3)CC2)=C(c2ccc(Cl)cc2)C1 [ABT-199, Venetoclax, reference compound]
inhibition at 0.01 µM (SW620; Table I-15, BCL-2 inhibitors): 5 to 10%
inhibition at 0.5 µM (SW620; Table I-15, BCL-2 inhibitors): 5 to 10%

SMILES: CC(C)CCN1c2nc(Nc3cc(F)c(O)c(F)c3)ncc2N(C)C(=O)C1C (stereo not shown) [BI-D1870, reference compound]
inhibition at 0.01 µM (RPMI-8226; Table I-11, RSK inhibitors): 10 to 20%
inhibition at 0.5 µM (RPMI-8226; Table I-11, RSK inhibitors): 10 to 20%
inhibition at 0.01 µM (MM.1S; 96 h): 114%
inhibition at 0.5 µM (MM.1S; 96 h): 20 to 30%
inhibition at 0.01 µM (MV-4-11; Table I-11, RSK inhibitors): 0 to 5%
inhibition at 0.5 µM (MV-4-11; Table I-11, RSK inhibitors): 20 to 30%

SMILES: CNC(=O)c1ccc(Nc2ncc(C(F)(F)F)c(NCc3nccnc3N(C)S(C)(=O)=O)n2)cc1 [Defactinib, reference compound]
inhibition at 0.01 µM (SW620; Table I-12, FAK inhibitors): 0 to 5%
inhibition at 0.5 µM (SW620; Table I-12, FAK inhibitors): 5 to 10%
inhibition at 0.01 µM (MM.1S; MM.1S, 10 nM, 96 hours, Table I-12, FAK inhibitors): 10 to 20%
inhibition at 0.5 µM (MM.1S; MM.1S, 500 nM, 96 hours, Table I-12, FAK inhibitors): 5 to 10%
inhibition at 0.01 µM (MV-4-11; Table I-12, FAK inhibitors): 0 to 5%
inhibition at 0.5 µM (MV-4-11; Table I-12, FAK inhibitors): 50 to 60%

inhibition at 0.5 µM [1]: 53 to 60%
inhibition at 2 µM [1]: 60 to 80%
SMILES: Cc1cc(S(=O)(=O)N2CCN(Cc3ccc4c(c3)CN(C3CCC(=O)NC3=O)C4=S)CC2)ccc1Nc1ncc(Br)c(Nc2cccc(F)c2C(N)=O)n1 (stereo not shown) [GT-08714, 2-((5-bromo-2-((4-((4-((2-(2,6-dioxopiperidin-3-yl)-1-thioxoisoindolin-5-yl)methyl)piperazin-1-yl)sulfonyl)-2-methylphenyl)amino)pyrimidin-4-yl)amino)-6-fluorobenzamide]
inhibition at 0.01 µM (RPMI-8226; [2]): 30 to 40%
inhibition at 0.5 µM (RPMI-8226; [2]): 40 to 50%
inhibition at 0.01 µM (MM.1S; MM.1S, 10 nM, 96 hours, Table I-8, SMARCA2/4 inhibitors): 30 to 40%
inhibition at 0.5 µM (MM.1S; MM.1S, 500 nM, 96 hours, Table I-8, SMARCA2/4 inhibitors): 50 to 60%

inhibition at 0.5 µM [1]: 80 to 100%
inhibition at 2 µM [1]: 60 to 80%
SMILES: C[C@@H]1CNC(=O)c2cc3ccc(C(=O)Nc4cnn(Cc5ccc(N6CCN(Cc7ccc8c(c7)CN(C7CCC(=O)NC7=O)C8=S)CC6)cc5)c4)nc3n21 (stereo partly drawn) [GT-08777, (9R)-N-(1-(4-(4-((2-(2,6-dioxopiperidin-3-yl)-1-thioxoisoindolin-5-yl)methyl)piperazin-1-yl)benzyl)-1H-pyrazol-4-yl)-9-methyl-6-oxo-6,7,8,9-tetrahydropyrido[3',2':4,5]pyrrolo[1,2-a]pyrazine-2-carboxamide]
inhibition at 0.01 µM (RPMI-8226; Table I-11, RSK inhibitors): 0 to 5%
inhibition at 0.5 µM (RPMI-8226; Table I-11, RSK inhibitors): 40 to 50%
inhibition at 0.01 µM (MM.1S; [3]): 20 to 30%
inhibition at 0.5 µM (MM.1S; [4]): 50 to 60%
inhibition at 0.01 µM (MV-4-11; Table I-11, RSK inhibitors): 20 to 30%
inhibition at 0.5 µM (MV-4-11; Table I-11, RSK inhibitors): 60 to 70%

inhibition at 0.5 µM [1]: 80 to 100%
inhibition at 2 µM [1]: 80 to 100%
SMILES: C[C@@H]1CNC(=O)c2cc3ccc(C(=O)Nc4cnn(Cc5ccc(N6CCC(N7CCN(Cc8ccc9c(c8)CN(C8CCC(=O)NC8=O)C9=S)CC7)CC6)cc5)c4)nc3n21 (stereo partly drawn) [GT-08778, (9R)-N-(1-(4-(4-(4-((2-(2,6-dioxopiperidin-3-yl)-1-thioxoisoindolin-5-yl)methyl)piperazin-1-yl)piperidin-1-yl)benzyl)-1H-pyrazol-4-yl)-9-methyl-6-oxo-6,7,8,9-tetrahydropyrido[3',2':4,5]pyrrolo[1,2-a]pyrazine-2-carboxamide]
inhibition at 0.01 µM (RPMI-8226; Table I-11, RSK inhibitors): 10 to 20%
inhibition at 0.5 µM (RPMI-8226; Table I-11, RSK inhibitors): 50 to 60%
inhibition at 0.01 µM (MM.1S; [3]): 40 to 50%
inhibition at 0.5 µM (MM.1S; [4]): 80 to 100%
inhibition at 0.01 µM (MV-4-11; Table I-11, RSK inhibitors): 50 to 60%
inhibition at 0.5 µM (MV-4-11; Table I-11, RSK inhibitors): 80 to 100%

inhibition at 0.5 µM [1]: 40 to 53%
inhibition at 2 µM [1]: 53 to 60%
SMILES: Cc1ccsc1C(=O)n1nc(Nc2ccc(S(=O)(=O)N3CCN(Cc4cccc5c4CN(C4CCC(=O)NC4=O)C5=S)CC3)cc2)nc1N (stereo not shown) [GT-08797, 3-(4-((4-((4-((5-amino-1-(3-methylthiophene-2-carbonyl)-1H-1,2,4-triazol-3-yl)amino)phenyl)sulfony 1)piperazin-1-yl)methyl)-1-thioxoisoindolin-2-yl)piperidine-2,6-dione]
inhibition at 0.01 µM (MV-4-11; Table I-13, CDK2 inhibitors): 5 to 10%
inhibition at 0.5 µM (MV-4-11; Table I-13, CDK2 inhibitors): 60 to 70%

inhibition at 0.5 µM [1]: 53 to 60%
inhibition at 2 µM [1]: 80 to 100%
SMILES: CC1(C)CCC(c2ccc(Cl)cc2)=C(CN2CCN(c3ccc(C(=O)NS(=O)(=O)c4ccc(N[C@H](CCN5CCN(Cc6ccc7c(c6)CN(C6CCC(=O)NC6=O)C7=S)CC5)CSc5ccccc5)c(S(=O)(=O)C(F)(F)F)c4)cc3)CC2)C1 (stereo partly drawn) [GT-09415, 4-(4-((4'-chloro-4,4-dimethyl-3,4,5,6-tetrahydro-[1,1'-biphenyl]-2-yl)methyl)piperazin-1-yl)-N-((4-(((2R)-4-(4-((2-(2,6-dioxopiperidin-3-yl)-1-thioxoisoindolin-5-yl)methyl)piperazin-1-yl)-1-(phenylthio)butan-2-yl)amino)-3-((trifluoromethyl)sulfonyl)phenyl)sulfonyl)benzamide]
inhibition at 0.01 µM (SW620; Table I-15, BCL-2 inhibitors): 30 to 40%
inhibition at 0.5 µM (SW620; Table I-15, BCL-2 inhibitors): 80 to 100%

SMILES: O=C1CCC(N2Cc3c(CN4CCN(c5ccc(-c6cc(F)c7c(c6)C(=O)N(C(C(=O)Nc6nccs6)c6ncn8c6CCC8)C7)cc5)CC4)cccc3C2=S)C(=O)N1 (stereo not shown) [GT-09429, 2-(6,7-dihydro-5H-pyrrolo[1,2-c]imidazol-1-yl)-2-(6-(4-(4-((2-(2,6-dioxopiperidin-3-yl)-1-thioxoisoindolin-4-yl)methyl)piperazin-1-yl)phenyl)-4-fluoro-1-oxoisoindolin-2-yl)-N-(thiazol-2-yl)acetamide]
inhibition at 0.01 µM (SW620; Table I-3, EGFR inhibitors): 10 to 20%
inhibition at 0.5 µM (SW620; Table I-3, EGFR inhibitors): 70 to 80%

SMILES: Nc1nnc(-c2ccccc2O)cc1N1CCNCC1 [GTC00645]
inhibition at 0.01 µM (RPMI-8226; [2]): -5 to 0%
inhibition at 0.5 µM (RPMI-8226; [2]): -5 to 0%
inhibition at 0.01 µM (MM.1S; 96 h): 15 to 20%
inhibition at 0.5 µM (MM.1S; 96 h): 15 to 20%
inhibition at 0.01 µM (MV-4-11; [2]): 10 to 15%
inhibition at 0.5 µM (MV-4-11; [2]): 10 to 15%

SMILES: Nc1cccc2c1CN(C1CCC(=O)NC1=O)C2=O (stereo not shown) [Lenalidomide, lenalidomide, reference compound]
inhibition at 0.5 µM (MM.1S; 96 h): 30 to 35%
Inhibition Rate at 10 nM (%) (MM.1S; MM.1S, 10 nM, 96 hours, Table I-16, compounds of Formula (II)): ln2

SMILES: CN(C)C(=O)c1cc2cnc(Nc3ccc(N4CCNCC4)cn3)nc2n1C1CCCC1 [Ribociclib, reference compound]
inhibition at 0.01 µM (MM.1S; MM.1S, 10 nM, 96 hours, Table I-9, CDK4/6 inhibitors): 10 to 20%
inhibition at 0.5 µM (MM.1S; MM.1S, 500 nM, 96 hours, Table I-9, CDK4/6 inhibitors): 10 to 20%
inhibition at 0.01 µM (MV-4-11; Table I-9, CDK4/6 inhibitors): 5 to 10%
inhibition at 0.5 µM (MV-4-11; Table I-9, CDK4/6 inhibitors): 20 to 30%
